Results reported in patent US9895321B2, “Vaccines, methods of administering vaccines, methods and products for treating and/or delaying onset of dysplastic lesions, and wafers for oral administration” (AKTIV-DRY LLC, priority 2010, dated 2018).

Legend:
[1] = assay type: physicochemical
Description: In certain embodiments of the invention, the dry powder compositions may comprise myo-inositol (cis-1,2,3,5-trans-4,6-cyclohexanehexyl). Dry powder compositions comprising myo-inositol are disclosed in the Sievers et al U.S. Patent Application No. 2008/0035143 A1, incorporated herein in its entirety, although other myo-inositol dry powder compositions, including those generally and/or specifically disclosed herein are also suitable for use in embodiments of the present invention. Dry powder compositions comprising myo-inositol may optionally further include one or more of amino acids, for example, arginine, alanine, histidine, leucine, and/or methionine, surfactants, for example, palmitic acid, stearic acid, Tween 20, Tween 80, and/or Pluronic F68, stabilizers, buffers, for example, tricine, sodium or potassium phosphate, sodium acetate, and/or sodium citrate, metal chelating agents, for example EDTA and/or DTPA, gelatin, albumin, or the like. In one specific embodiment, myo-inositol and leucine are employed in a 98.5:1.5 weight ratio. Advantageously, myo-inositol dry powder compositions containing one or more additional components are provided using the CAN-BD process. It has been discovered that when pure myo-inositol is processed by the CAN-BD process at a temperature of about 50° C., a crystal polymorph which is different from the common crystal polymorph of native myo-inositol forms. This polymorph has an exothermic transition with onset of 110-130° C. and appears to be thermally stable at room temperature for only short periods of time (less than 2 weeks), but remains for longer periods of time when stored at temperatures of 2-8° C. (for at least 3 months and up to 5 months), and is removed by annealing at 115° C. or above. The moisture content of this new polymorph is very low (0.1% water) and identical to the moisture content of native myo-inositol. The X-ray diffraction pattern of this polymorph differs from those of native myo-inositol and a previously disclosed myo-inositol dihydrate (Bonnet 2006). […]

[2] = system: dysplastic lesions; settings: three months, cited from earlier work
[3] = system: P13K; settings: conclusion of Gustafson et al; cited from earlier work

Row | Structure (SMILES) | period of thermal stability [1] | moisture content ([1]; new polymorph, identical to native myo-inositol) [% water] | period for which the polymorph remains ([1]; stored at 2-8° C.) | maximum tolerated dose ([2]; oral administration to the gastrointestinal tract) [grams per day] | regression in dysplastic lesions ([2]; oral, mild to moderate airway dysplasia) | P13K inhibition [3]
1 | O[C@H]1[C@H](O)[C@@H](O)[C@H](O)[C@@H](O)[C@H]1O [crystal polymorph, myo-inositol] | less than 2 weeks | 0.1 | at least 3 months |  |  | 
2 | O[C@H]1[C@H](O)[C@@H](O)[C@H](O)[C@@H](O)[C@H]1O [myo-inositol, cis-1,2,3,5-trans-4,6-cyclohexanehexyl] |  |  |  | 18 | significant regression | P13K inhibitor
